The subject of data set [1] is Balb/C mice. Description: Plasma EtOH concentration assay. It is filed as in vivo. The settings on record: intragastric 2 mg/kg. The protocol: Plasma EtOH Concentration Assay. • Blood samples from the tail vein of mice at different time points (0, 15, 30, 45, 60, 90, 120, 240, 480 and 720 minutes) after EtOH (30% ethanol, 0.2 ml/kg bw) or TDHM (2 mg/kg bw), PDHM (2 mg/kg bw) or DHM (2 mg/kg bw) gavage were collected for plasma EtOH concentrations (plasma [EtOH]) assays. (“BW” or “bw”: body weight) • Briefly, the Balb/C mice were put into a restraint tube and the tail was warmed at 37° C. The tail vein at the tip of the tail was punched with a sharp blade. Approximately 0.2 ml venous blood was dropped to a capillary blood collection tube containing lithium heparin (Ram Scientific). Blood samples were centrifuged at 2500 rpm for 20 min. The supernatant was collected and stored at −80° C. until assay. The EtOH content of each blood sample was measured in duplicate along with EtOH standards using the alcohol oxidase reaction procedures (EnzyChrom™ Ethanol Acid Assay Kit, ECET-100) (Liang et al., 2007). The sample preparations were the same as described above.

Data set [2] deals with Balb/C mice. Description: Anti-alcoholism test (agent 30 min after alcohol). It is filed as in vivo. The settings on record: 2 mg/kg gavage 30 min after 30% ethanol. The source says:
Anti-Alcoholism Tests • Groups design and treatment before experiment are as the same as that in Deintoxication test. […]

The test system of data set [3] is Balb/C mice. Description: Climbing net test. Type of data set: in vivo. Particulars: 2 mg/kg gavage 30 min before alcohol. The protocol: Climbing Net Test • Groups design and treatment before experiment are as the same as that in deintoxication test. […] 30 minutes later all mice administrated alcohol (liquid Erguotou, ethonol concentration was diluted to 30%) 0.2 mL/kg BW and placed on a vertical metal net and measured the time when mice climbed on net.

The subject of data set [4] is Balb/C mice. Description: Deintoxication test (agent 30 min before alcohol). Particulars: 2 mg/kg gavage 30 min before 30% ethanol.

As usually defined, the solubility is the dissolved amount per volume that the medium holds. Low readings indicate little dissolved substance, high ones much dissolved substance. Turning to `O=C1c2c(O)cc(O)cc2O[C@H](c2cc(O)c(O)c(O)c2)[C@H]1O` [DHM, dihydromyricetin, reference compound], the “blood alcohol concentration vs control group treated with saline” value in the data set on Balb/C mice [1] was “significantly decreased”. In the data set with Balb/C mice [2], the “Sleep time M ± SD” value turned out to be 138.17 ± 33.73 min and the “Tolerance time M ± SD” value came out at 18.29 ± 10.07 min. The Rate of drunk with Balb/C mice [2] (20 mice) was 0%. Further, in the data set with Balb/C mice [3], the “climbing time vs normal control mice” value is given as “significantly prolonged”. Also, in the data set with Balb/C mice [3] (vertical metal net), the climbing turned out to be 329.75 ± 76.46 min. This compound also returned a solubility in the data set “Solubility in water” not above 264 µg/mL. For the same compound, in the data set on Balb/C mice [4], the “Sleep time M ± SD” value came out at 135.71 ± 25.25 min and the “Tolerance time M ± SD” value was 25 ± 7.29 min. In the data set on Balb/C mice [4] (20 mice), the Dead number was determined as 2 piece and the Rate of drunk stood at 10%.

The record behind these values is patent publication US9139551B2, “Preparation of a new class of water-soluble ammonium 2,3-dihydroxy-5-((2R,3R)-3,5,7-trihydroxy-4-oxochroman-2-yl) phenolates and their biological activity of alcohol elimination” (priority 2014, dated 2015).
